Source: article PMC2367043, “Effects of Ursolic Acid and its Analogues on Soybean 15-Lipoxygenase Activity and the Proliferation Rate of A human Gastric Tumour Cell Line” (Mediators of Inflammation, 1994)
Like-named read-outs stand apart in the source and are kept apart here.

Molecular target: T1, soybean 15-lipoxygenase (Glycine max, UniProt P08170)
T1 construct: gene LOX1.1
T1 sequence (P08170 1-839): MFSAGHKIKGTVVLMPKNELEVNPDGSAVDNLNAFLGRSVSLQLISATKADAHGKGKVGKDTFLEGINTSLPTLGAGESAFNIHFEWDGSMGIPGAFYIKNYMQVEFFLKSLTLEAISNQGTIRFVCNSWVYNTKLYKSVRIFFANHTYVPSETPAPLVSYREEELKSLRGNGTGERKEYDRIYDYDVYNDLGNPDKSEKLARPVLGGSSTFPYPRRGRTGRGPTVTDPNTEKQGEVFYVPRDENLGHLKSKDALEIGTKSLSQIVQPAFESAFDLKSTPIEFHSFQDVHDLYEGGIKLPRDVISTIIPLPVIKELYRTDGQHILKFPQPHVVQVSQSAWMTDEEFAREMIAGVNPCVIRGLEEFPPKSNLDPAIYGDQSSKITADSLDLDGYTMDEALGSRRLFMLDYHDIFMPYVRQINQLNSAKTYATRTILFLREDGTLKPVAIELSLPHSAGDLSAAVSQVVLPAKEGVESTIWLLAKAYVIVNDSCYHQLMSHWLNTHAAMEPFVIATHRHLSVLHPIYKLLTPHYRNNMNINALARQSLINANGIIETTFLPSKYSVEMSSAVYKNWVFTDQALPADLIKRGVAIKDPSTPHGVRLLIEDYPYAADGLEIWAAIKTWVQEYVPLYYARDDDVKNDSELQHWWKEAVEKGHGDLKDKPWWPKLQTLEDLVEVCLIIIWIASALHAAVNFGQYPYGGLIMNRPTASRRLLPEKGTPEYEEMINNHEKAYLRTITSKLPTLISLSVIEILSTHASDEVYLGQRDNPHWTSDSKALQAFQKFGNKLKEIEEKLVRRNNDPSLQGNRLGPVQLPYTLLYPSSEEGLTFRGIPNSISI
Assay: spectrophotometric assay at […] nm of […](S)-HPODE formation from linoleic acid, pH […]
Format: biochemical

Row | Structure (SMILES) | IC50 [µM] | IC50 (read-out: IC50) [µM]
1 | CC1(C)CC[C@]2(C(=O)O)CC[C@]3(C)C(=CC[C@@H]4[C@@]5(C)CC[C@H](O)C(C)(C)[C@@H]5CC[C@]43C)[C@@H]2C1 [oleanolic acid] | 265 | –
2 | C[C@H]1[C@H](C)CC[C@]2(C(=O)O)CC[C@]3(C)C(=CC[C@@H]4[C@@]5(C)CC[C@H](O)C(C)(C)[C@@H]5CC[C@]43C)[C@H]12 [ursolic acid] | – | 175
